# Reference: EP2698155A1, “Pharmaceutical unit dosage form comprising 4-phenylbutyric acid” (priority 2012, dated 2014)
# System: adenocarcinoma of the prostate
# Assay: Treatment of human patients with prostate cancer (case reports)
# Assay type: in vivo
# Details: general statement
# Method: Diseases that can be beneficially influenced by the present dosage form include in particular benign prostate hyperplasy, cancer, leukemias, cystic fibrosis, AIDS, kidney and liver diseases, thalassemia and urea cycle disorders. For example, the treatment of an adenocarcinoma of the prostate can be carried out by administering twice daily, e.g. in the morning and evening, a pharmaceutical tablet formulation containing 250 mg of sodium 4-phenylbutyrate. […] Treatment may be continued for several month or years until a satisfactory effect is observed or the patient is total free of the disease.
# Following are descriptions of treatments and test results obtained from human patients.
# Because of progressive bone pain they underwent bilateral orchiectomy in February 1996. They became free of pain until November 1998 when they again suffered bone pain mainly in their back. They were than treated orally twice daily with 250 mg of sodium phenylbutyrate retard tablets according to Example 1. Four weeks later they were free of pain. They stayed on this medication until June 2001 without any other symptoms of the prostate carcinoma. The PSA and the alkaline phosphatase were always within normal limits.
# They stay now in complete unmaintained remission for 12 months.
# This patient presented in March 1997 with a pathological fracture of the 8th thoracic vertebra caused by metastatic destruction. […]
compound,measurement,setting,value
O=C([O-])CCCc1ccccc1.[Na+] [sodium 4-phenylbutyrate],therapeutic effect (pain),"adenocarcinoma of the prostate, tablet with 250 mg twice daily, after treatment of about one month",pain disappears
same,side effects,over a long period of treatment,no side effects
